Experimental data as given in patent publication US10493046B2, “5-hydroxytryptamine 1B receptor-stimulating agent for use as a promoter of satellite cells self-renewal and/or differentiation” (INSTITUT PASTEUR, priority 2015, dated 2019).

Columns and labels:
Assay type in all cases: in vivo, mouse
satellite cells [1] = test: Satellite cell (SC) number in tibialis anterior of treated mice (histological count or FACS cytometry); conditions: GR127935 in osmotic pump together with vortioxetine I.P 12 days; Tg:Pax7nGFP mice
Method: For satellite cell counting, only the tibialis anterior muscle was dissected and digested as described earlier, and the totality of the tube was analysed to assess the number of satellite cells per muscle. FACS analysis was done using a FACSasia (Beckman). All analyses and quantitation were performed using Summit v4.3 software from DakoCytomation and FloJo software. […]
In order to count the number of satellite cells, the tibialis anterior (TA) of Tg:Pax7nGFP mice were digested and analysed by FACS in placebo and vortioxetine (12 days, 20 mg/Kg) treated mice. […] After 3 weeks of vortioxetine treatment, the number of satellite cells was even higher (9351 satellite cells±706, p=0.0079) but no statistically significant differences were found between 12 days and 3 weeks of treatment (p=0.15).

vessels = test: Vessel number in tibialis anterior of treated mice (Flk1GFP/+ or CD31 immunostaining); conditions: GR127935 in osmotic pump together with vortioxetine I.P 12 days
satellite cells [2] = test: BrdU cell division of satellite cells during treatment; conditions: BrdU during the entire per os treatment
Source text: (a) Schematic representation of fluoxetine delivery and sacrifice time points. (b) Number of satellite cells per mm^2 on section. […] The arrows point to the satellite cells. […] (k-l) Representative image of a vessel (arrows) in the Matrigel plug detected by HE staining in placebo (k) or fluoxetine (l) treated mice. (m) Vessel length 4 days post-plating of Cytodex® beads covered with HUVEC. (n) Representative image of a Cytodex® bead 4 days-post plating in presence of placebo plasma. […] Using immunostainings and FACS cell sorting in Figures (p) to (v): (p) Number of Pax7GFP expressing cells per digested TA (expressed as an absolute number) counted by FACS. (q) Representative FACS profile of digested TA of TgPax7nGFP mouse. […] TA muscle was digested and cells were isolated by FACS, spined on a slide and immuno-stained against BrdU. (s) Percentage of BrdU+ cells in Tg:Pax7nGFP mice (n=3 per time point). […] Data are represented as mean±s.d. *P<0.05; **P<0.01; ***P<0.001. Scale bar represents 100 μm. For Figures (p) to (v): n=7 mice used per condition, except for BrdU experiments n=3 per time point. Data are represented as mean±s.d. **P<0.01. Scale bar represents 100 μm.

cytokines [3] = test: Plasmatic cytokine levels by Luminex after notexin injury; conditions: injured with fluoxetine treatment
Source text: (§1) Snap frozen plasma samples (n=6 per condition) were thawed out, and supernatant was processed for Luminex® multiple cytokine and chemokine analysis (Bio-Plex® Pro™ Mouse Cytokine Standard 23-Plex, Group I and Standard 9-Plex, Group II). Normalization was done by sample weight of frozen muscle.

[4] = system: serotonin receptors subtypes; test: RT-qPCR of serotonin receptor subtypes in FACS-sorted muscle cells after treatment; conditions: 6 weeks P.O fluoxetine; FACS-sorted endothelial cells
Method: Total RNA was isolated from cells using the RNAeasy Micro kit (Qiagen). The total RNA was reverse-transcribed using Superscript® III Reverse transcriptase (Invitrogen). Real-time quantitative PCR was performed using Power Sybr Green PCR Master Mix (Applied Biosystems) and the rate of dye incorporation was monitored using the StepOne™ Plus RealTime PCR system (Applied Biosystems). At least three biological replicates were used for each condition. Data were analyzed by StepOne Plus RT PCR software v2.1 and Microsoft excel. GAPDH transcript levels were used for normalisation of each target (=ΔCT). Real-time PCR CT values were analyzed using the 2-(ΔΔCt) method to calculate the fold expression (ΔΔCTmethod, Livak et al., 2001).
RT-qPCR was then performed on serotonin receptors subtypes to further characterize by which the endothelial cells could be activated (FIG. 5b). […] The same observation was made in FACS cell-sorted SC from Tg:Pax7nGFP mice (FIG. 5b).

cytokines [5] = test: Plasmatic cytokine levels by Luminex in Mdx mice; conditions: fluoxetine P.O. 6 weeks
Source text: as §1

SMILES	Number of SC (satellite cells [1])	Number of vessels (vessels)	SC population dividing (BrdU) (satellite cells [2])	IL-6 level after injury (cytokines [3])	Expression of other subtypes (5-HT1 AR, 5-HT1 DR, 5-HT1 FR, 5-HT2 AR, 5-HT2 CR) [4]	Level of IL6 (cytokines [5])	Level of IL10 (cytokines [5])
COc1ccc(NC(=O)c2ccc(-c3ccc(-c4noc(C)n4)cc3C)cc2)cc1N1CCN(C)CC1 [GR127935]	5540±411 SC per TA	928±207 vessels per mm^2	–	–	–	–	–
CNCCC(Oc1ccc(C(F)(F)F)cc1)c1ccccc1 (stereo not shown) [fluoxetine]	–	–	90%	2459 ± 920 pg/µL	non-statistically significant increase	34.52 ± 21 pg/mL	99.6 ± 56 pg/mL
